Source: US11319341B2, “Immune-stimulating soluble doxorubicin-conjugated complex” (Yafei (Shanghai) Biopharmaceutical Co., Ltd., priority 2016, dated 2022)
Non-standard residues stand in square brackets, D forms with d. Residues, ends and D or L forms follow the SMILES beside them. ξ: configuration not given here. *: point of attachment. Doxorubicin(3'-N) = COc1cccc2c1C(=O)c1c(O)c3c(c(O)c1C2=O)C[C@@](O)(C(=O)CO)C[C@@H]3O[C@H]1C[C@H](N*)[C@H](O)[C@H](C)O1; Hexanoyl(6-maleimido) = O=C1C=CC(=O)N1CCCCCC(=O)*; ξL = CC(C)CC(N)C(=O)O

Columns and labels:
[1] = tested on: HT1080 cells; assay: Efficacy in HT1080 tumor model; type: in vivo; details: HT1080, nude mice, 18 umol/kg IV once weekly for 3 weeks
Source text: Test purpose: to investigate the anti-tumor efficacy of QHL-086, QHL-092, QHL-095, QHL-087, QHL-010, QHL-117 in mice model for tumor treatment.
Test drug: C3, QHL-086, QHL-092, QHL-095, QHL-087, QHL-010, QHL-117 injections and mitomycin injection, diluted to corresponding concentrations by physiological saline when testing.
(§1) 1. Animal: nude mice of 6-8 weeks old, all female.
1) HT1080 cells were purchased from American type culture collection (ATCC) and identified according the specification provided by ATCC.
(§2) 2) Production of tumor. […] Mice were randomly grouped after the tumor reached at least 100 mm^3. Then treatment began and the day on which the treatment began was day 1.
According to the clinical application of C3, QHL-086, QHL-092, QHL-095, QHL-087, QHL-010, QHL-117 were intravenously injected (IV). C3, QHL-086, QHL-092, QHL-095, QHL-087, QHL-010, QHL-117 were administered in a low and same dose of 18 umol/kg. The control group was administered by physiological saline. Drugs were administered once weekly for 3 weeks.

[2] = tested on: Human liver cancer HepG2 cells; assay: Efficacy on human liver cancer HepG2 cells in nude mice; type: in vivo; details: 54 umol/kg IV once weekly for four weeks
Source text: Test purpose: to investigate the anti-tumor efficacy of some compounds of the invention in mice model for tumor treatment.
Test drug: QHL-095, QHL-008, QHL-086, QHL-116, QHL-119, QHL-092, QHL-006, QHL-089, QHL-005, QHL-007, QHL-096, QHL-012, QHL-087, QHL-117, QHL-120, QHL-093, QHL-010, QHL-090, QHL-009, QHL-011 injections and control group injection, diluted to corresponding concentrations by physiological saline when testing.
as §1
1) Human liver cancer HepG2 cells were purchased from American type culture collection (ATCC) and identified according the specification provided by ATCC.
as §2
According to the clinical application of QHL-095, QHL-008, QHL-086, QHL-116, QHL-119, QHL-092, QHL-006, QHL-089, QHL-005, QHL-007, QHL-096, QHL-012, QHL-087, QHL-117, QHL-120, QHL-093, QHL-010, QHL-090, QHL-009, QHL-011, drugs were intravenously injected (IV). Compounds and control groups were administered in a dose of 54 umol/kg. The control group was administered by physiological saline. Drugs were administered once weekly for four weeks.

[3] = tested on: acidized human breast cancer (MDA-MB435) tumor tissue homogenates; assay: Activation efficiency of the linker by tumor tissue homogenates (HPLC); type: biochemical; details: Table 4-1; 37° C., MDA-MB435 tumor tissue homogenates pH6.0, compound 1 mg/ml
Protocol: When the C selected AAN, The activation of different S-C-A linker and control linker was evaluated in the activation assay, The S-C-A conjugate was used to dissolve and they were diluted for ten times to a concentration of 0.1 mM/ml. At 37° C., sample compounds were added into 100 μg acidized human breast cancer (MDA-MB435) tumor tissue homogenates (pH6.0) in a concentration of 1 mg/ml. The enzyme in tumor tissue homogenates could release and detected by HPLC, thereby comparing the activation efficiency of the linker by the tumor tissue.

[4] = Water solubility of freeze-dried compounds in water (observation and HPLC)
[5] = tested on: CT26 tumor cells; assay: CT26 tumor immune model: inhibition of tumor; type: in vivo; details: CT26 subcutaneous tumor, BALB/c mice, compounds 18 μmol/kg, mouse PD-1 antibody 5 mg/kg
Protocol: Test purpose: to investigate the anti-tumor efficacy of different compounds in CT26 cancer model for immune treatment.
1) CT26 tumor cells were purposed from ATCC. Cells were cultivated in DMEM culture solution containing 10% fetal bovine serum at 37° C. and 5% CO2. The cells were passaged for every three days and cells within the 15th passage were used.
(§3) 2) 5×10^5CT26 cancer cells were subcutaneously injected to the back of the nude mice. Mice were randomly grouped after the tumor reached at least 100 mm^3 Then treatment began and the day on which the treatment began was day 1.

[6] = tested on: tumor CD8+ T cells; assay: CT26 tumor immune model: tumor CD8+ T cells (CD8 positive in CD45 positive cells, flow cytometry); type: in vivo, BALB/c mice; details: ratio of CD8 positive cells in CD45 positive cells in tumor, compounds 18 μmol/kg, PD-1 antibody 5 mg/kg
Protocol: as §3
3) Analysis on tumor CD8+ T cells. The tumor tissue was homogenated and individual cells in the tumor were filtered, separated and washed by buffer twice, then cultivated with the leucocyte common antigen CD45-PE and CD8-FITC marked antibodies for 1 hour at ambient temperature. The cells were washed by phosphate buffer containing 1% fetal bovine serum twice and then analyzed for the ratio of the T lymphocyte antigen (CD8) positive cells in the leucocyte common antigen (CD45) positive cells by flow cytometry.

[7] = Tissue distribution of released doxorubicin in orthotopic transplantation CT26 tumor in liver; details: tissues at 1-72 hr, FIG. 2, FIG. 3
Protocol: Production of tumor model: CT26 tumor cells were purposed from ATCC. Cells were cultivated in DMEM culture solution containing 10% fetal bovine serum at 37° C. and 5% CO2. The cells were passaged for every three days and cells within the 15th passage were used.
5×10^5CT26 cancer cells were subcutaneously injected to the back of the nude mice. Mice were randomly grouped after the tumor reached 800-1000 mm^3. Then extract the tumor tissue and cleave to 100 mm3 tumor tissue block and orthotopic transplant into BALB/c mice liver. After 14 days, when orthotopic transplantation tumor grow up, 36 mice with orthotopic transplantation tumor for a group are treated with drug. Then collect the different tissue at 1, 6, 12, 24, 36, 72 hr to detect the concentration of releasing doxorubicin in different tissue.

[8] = physchem

SMILES	Size of tumor (mm^3) Day 28 [1] [mm^3]	inhibitory rate on tumor Day 28 [1] [%]	Size of tumor (mm^3) Day 28 [2] [mm^3]	inhibitory rate on tumor Day 28 [2] [%]	Activation (%) [3] [%]	solubility [4] [µg/mL]	inhibitory rate on tumor % Day 18 ([5]; Day 18 as printed) [%]	Size of tumor (mm^3) Day 28 ([5]; Day 28) [mm^3]	CD8:CD45 (%) [6] [%]	active doxorubicin tissue distribution, in words [7]	solubility [8] [µg/mL]
COc1cccc2c1C(=O)c1c(O)c3c(c(O)c1C2=O)C[C@@](O)(C(=O)CO)C[C@@H]3O[C@H]1C[C@H](N)[C@H](O)[C@H](C)O1 [C1 DOX, Doxorubicin]	754.4 ± 587.4	56.8	1683.4 ± 1087.4	41.9	–	–	–	–	–	–	–
COc1cccc2c1C(=O)c1c(O)c3c(c(O)c1C2=O)C[C@@](O)(C(=O)CO)C[C@@H]3O[C@H]1C[C@H](NC(=O)C(CC(C)C)NC(=O)[C@H](CC(N)=O)NC(=O)[C@H](C)NC(=O)[C@H](C)N)[C@H](O)[C@H](C)O1 (stereo partly drawn) [C2 AANL-DOX] (H-AAN[ξL]-{Doxorubicin(3'-N)})	318.5 ± 197.6	81.8	1564 ± 689.4	46.0	42.1	< 1000	–	–	–	–	–
COc1cccc2c1C(=O)c1c(O)c3c(c(O)c1C2=O)C[C@@](O)(C(=O)CO)C[C@@H]3O[C@H]1C[C@H](NC(=O)[C@H](CC(C)C)NC(=O)[C@H](CC(N)=O)NC(=O)[C@H](C)NC(=O)[C@H](C)NC(=O)CCCCCN2C(=O)C=CC2=O)[C@H](O)[C@H](C)O1 [C3 EMC-AANL-DOX]	138.3 ± 124.6	92.1	218.3 ± 167.7	92.5	56.4	< 5000	66.9	624.5 ± 313.6	8.9	major in orthotopic tumor in liver	–
COc1cccc2c1C(=O)c1c(O)c3c(c(O)c1C2=O)C[C@@](O)(C(=O)CO)C[C@@H]3O[C@H]1C[C@H](NC(=O)[C@H](CC(C)C)NC(=O)[C@H](CC(N)=O)NC(=O)[C@H](C)NC(=O)[C@H](C)NC(=O)[C@@H](NC(=O)CCCCCN2C(=O)C=CC2=O)C(C)C)[C@H](O)[C@H](C)O1 [QHL-123] ({Hexanoyl(6-maleimido)}-VAANL-{Doxorubicin(3'-N)})	–	–	–	–	–	–	–	–	–	–	> 2000
